Test results as given in patent publication US9586952B2, “Polycyclic estrogen receptor modulators and uses thereof” (SERAGON PHARMACEUTICALS, INC., priority 2013, dated 2017).

What was measured:
ER-α = target: T1, ER-α (Homo sapiens, UniProt P03372); assay: Breast Cancer Cell ER-α In Cell Western Assay (SP1); type: cell-based; conditions: MCF-7 cells, 4 or 24 hr post compound addition, SP1 antibody; for Emax: MCF7, read-out: ER-α In Cell Western Assay (SP1) Max Response; for DC50: read-out: ER-α In Cell Western Assay (SP1) IC50
T1 construct: endogenous in cells; host or cells: MCF-7
T1 sequence (P03372 1-595): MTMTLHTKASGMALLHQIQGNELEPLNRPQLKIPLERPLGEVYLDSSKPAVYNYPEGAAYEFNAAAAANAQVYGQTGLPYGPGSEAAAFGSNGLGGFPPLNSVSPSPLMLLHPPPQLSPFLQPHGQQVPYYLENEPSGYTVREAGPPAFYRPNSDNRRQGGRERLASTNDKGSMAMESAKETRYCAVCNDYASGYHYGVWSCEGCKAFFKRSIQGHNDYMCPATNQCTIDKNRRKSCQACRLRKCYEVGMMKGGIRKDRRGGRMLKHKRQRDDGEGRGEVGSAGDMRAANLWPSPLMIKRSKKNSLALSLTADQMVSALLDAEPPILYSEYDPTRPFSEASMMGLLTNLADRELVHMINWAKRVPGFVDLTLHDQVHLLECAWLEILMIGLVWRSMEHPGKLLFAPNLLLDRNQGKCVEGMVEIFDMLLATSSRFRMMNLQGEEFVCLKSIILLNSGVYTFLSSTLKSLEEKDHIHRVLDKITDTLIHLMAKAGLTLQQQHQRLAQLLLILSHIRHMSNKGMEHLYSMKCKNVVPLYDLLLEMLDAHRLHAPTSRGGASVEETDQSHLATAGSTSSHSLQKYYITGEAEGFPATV
Protocol: MCF-7 cells were adjusted to a concentration of 200,000 cells per mL in RPMI containing 10% charcoal-stripped FBS and 20 mM HEPES. 16 microliters of the cell suspension (3200 cells) was added to each well of a poly-D-lysine 384 well plate, and the cells were incubated overnight to allow the cells to adhere. The following day an eleven point, serial semilog dilution of each compound was added to the cells in 16 μL at a final concentration ranging from 0.3-0.000003 μM. At 4 or 24 hr post compound addition, the cells were fixed (10% formalin in PBS) for 20 minutes. Cells were permeablized in PBS 0.1% Triton and blocked with LICOR blocking buffer (50 μl/well, 90′). The wells were then incubated overnight at 4° C. with SP1 rabbit monoclonal Ab (Thermo Scientific) diluted 1:1000 in LICOR blocking buffer/0.1% Tween-20. Wells which were treated with blocking buffer with Tween but no antibody were used as a background control. Wells were washed with 0.1% Tween-20/PBS and then incubated in goat anti-rabbit IRDye™ 800 CW (LICOR Inc.; 1:10000) and DRAQ5 DNA dye (1:2000 for 2 mM stock) diluted in LICOR blocking buffer containing 0.1% Tween-20 and 0.01% SDS for 60 minutes. Cells were washed (50 μl/well, 5′ each) in 0.1% Tween-20/PBS. Plates were scanned on a LICOR Odyssey infrared imaging system. Integrated intensities in the 800 nm channel and 700 nm channel were measured to determine levels of ER and DNA respectively. Percent ER levels were determined as follows: (Integrated intensity 800 nm sample/integrated intensity 700 nm sample)/(Integrated intensity 800 nm untreated cells/integrated intensity 700 nm untreated cells)×100=% ER levels.

MCF-7 cells = assay: MCF7 Viability Assay (Breast Cancer Cell Viability Assay); type: cell-based; conditions: 5 days' compound exposure, CellTiter-Glo; for IC50: Homo sapiens, MCF7, 120 h
Protocol: MCF-7 cells were adjusted to a concentration of 20,000 cells per mL in RPMI containing 10% FBS and 20 mM HEPES. 16 microliters of the cell suspension (320 cells) was added to each well of a 384 well plate, and the cells were incubated overnight to allow the cells to adhere. The following day an eleven point, serial semilog dilution of each compound was added to the cells in 16 μL at a final concentration ranging from 0.3-0.000003 μM. After 5 days' compound exposure, 16 μL of CellTiter-GLo (Promega, Madison Wis.) was added to the cells, and the relative luminescence units (RLUs) of each well were determined. CellTiter-Glo added to 32 μL of medium without cells was used to obtain a background value. The Percent viability of each sample was determined as follows: (RLU sample-RLU background/RLU untreated cells-RLU background)×100=% viability.

| SMILES | Emax (ER-α) | DC50 (ER-α) | IC50 (MCF-7 cells) | MCF7 Viability Assay Max Response (MCF-7 cells) |
| --- | --- | --- | --- | --- |
| CC/C(=C(/c1ccc(/C=C/C(=O)O)cc1)c1ccc(-n2ccnc2)cc1)c1ccccc1 [Example 17, (E)-3-(4-((E)-1-(4-(1H-Imidazol-1-yl)phenyl)-2-phenylbut-1-en-1-yl)phenyl)acrylic acid] | ≥ 40% | > 100 nM | > 100 nM | ++ (++ = a single % value ≧ 40%) |
| N#Cc1ccc(/C(=C(\c2ccc(/C=C/C(=O)O)cc2)c2ccc(-c3cn[nH]c3)cc2)C2CCC2)c(Cl)c1 [Example 3, (E)-3-(4-((E)-1-(4-(1H-Pyrazol-4-yl)phenyl)-2-(2-chloro-4-cyanophenyl)-2-cyclobutylvinyl)phenyl) acrylic acid] | ≥ 40% | ≤ 100 nM | ≤ 100 nM | ++ (++ = a single % value ≧ 40%) |
| COc1ccc(/C(=C(\c2ccc(/C=C/C(=O)O)cc2)c2ccc(-c3nn[nH]n3)cc2)C2CCC2)c(Cl)c1 [Example 50, (E)-3-(4-((E)-1-(4-(2H-Tetrazol-5-yl)phenyl)-2-(2-chloro-4-methoxyphenyl)-2-cyclobutylvinyl)phenyl)acrylic acid] | ≥ 40% | > 100 nM | > 100 nM | ++ (++ = a single % value ≧ 40%) |
| O=C(O)/C=C/c1ccc(/C(=C(\c2ccc(F)cc2Cl)C2CCC2)c2ccc(-c3cncs3)cc2)cc1 [Example 33, (E)-3-(4-((E)-2-(2-Chloro-4-fluorophenyl)-2-cyclobutyl-1-(4-(thiazol-5-yl)phenyl)vinyl)phenyl)acrylic acid] | ≥ 40% | ≤ 100 nM | ≤ 100 nM | ++ (++ = a single % value ≧ 40%) |
| COc1ccc(/C(=C(\c2ccc(/C=C/C(=O)O)cc2)c2ccc(-c3cncs3)cc2)C2CCC2)c(C)c1 [Example 54, (E)-3-(4-((E)-2-Cyclobutyl-2-(4-methoxy-2-methylphenyl)-1-(4-(thiazol-5-yl)phenyl)vinyl)phenyl)acrylic acid] | ≥ 40% | ≤ 100 nM | ≤ 100 nM | ++ (++ = a single % value ≧ 40%) |
| O=C(O)/C=C/c1ccc(/C(=C(\c2ccccc2)C2CCC2)c2ccc(-c3cnn(CCO)c3)cc2)cc1 [Example 67, (E)-3-(4-((E)-2-Cyclobutyl-1-(4-(1-(2-hydroxyethyl)-1H-pyrazol-4-yl)phenyl)-2-phenylvinyl)phenyl)acrylic acid] | ≥ 40% | ≤ 100 nM | ≤ 100 nM | ++ (++ = a single % value ≧ 40%) |
| O=C(O)/C=C/c1ccc(/C(=C(\c2ccc(F)cc2Cl)C2CCC2)c2ccc(-c3nn[nH]n3)cc2)cc1 [Example 49, (E)-3-(4-((E)-1-(4-(2H-Tetrazol-5-yl)phenyl)-2-(2-chloro-4-fluorophenyl)-2-cyclobutylvinyl)phenyl)acrylic acid] | < 40% | > 100 nM | > 100 nM | + (+ = a single % value < 40%) |
| CC/C(=C(/c1ccc(/C=C/C(=O)O)cc1)c1ccc(-c2cncs2)cc1)c1cscc1C [Example 32, (E)-3-(4-((E)-2-(4-Methylthiophen-3-yl)-1-(4-(thiazol-5-yl)phenyl)but-1-en-1-yl)phenyl)acrylic acid] | ≥ 40% | ≤ 100 nM | ≤ 100 nM | ++ (++ = a single % value ≧ 40%) |
| CC/C(=C(/c1ccc(/C=C/C(=O)O)cc1)c1ccc(-c2cnsc2)cc1)c1ccccc1 [Example 15, (E)-3-(4-((E)-1-(4-(Isothiazol-4-yl)phenyl)-2-phenylbut-1-en-1-yl)phenyl)acrylic acid] | ≥ 40% | ≤ 100 nM | > 100 nM | ++ (++ = a single % value ≧ 40%) |
| O=C(O)/C=C/c1ccc(/C(=C(\c2ncc(C(F)(F)F)cc2Cl)C2CCC2)c2ccc(N3CCOCC3)cc2)cc1 [Example 57, (E)-3-(4-((E)-2-(3-Chloro-5-(trifluoromethyl)pyridin-2-yl)-2-cyclobutyl-1-(4-morpholinophenyl)vinyl)phenyl)acrylic acid] | ≥ 40% | ≤ 100 nM | ≤ 100 nM | ++ (++ = a single % value ≧ 40%) |

More lines, main results first:

| Emax (ER-α) | DC50 (ER-α) | IC50 (MCF-7 cells) | SMILES | MCF7 Viability Assay Max Response (MCF-7 cells) |
| --- | --- | --- | --- | --- |
| ≥ 40% | ≤ 100 nM | ≤ 100 nM | O=C(O)/C=C/c1ccc(/C(=C(\c2ccccc2)C2CCC2)c2ccc(N3CCNCC3)cc2)cc1 [Example 65, (E)-3-(4-((E)-2-Cyclobutyl-2-phenyl-1-(4-(piperazin-1-yl)phenyl)vinyl)phenyl)acrylic acid] | ++ (++ = a single % value ≧ 40%) |
| ≥ 40% | ≤ 100 nM | ≤ 100 nM | COc1ccc(/C(=C(\c2ccc(/C=C/C(=O)O)cc2)c2ccc(N3CCOCC3)cc2)C2CCC2)c(C)c1 [Example 47, (E)-3-(4-((E)-2-Cyclobutyl-2-(4-methoxy-2-methylphenyl)-1-(4-morpholinophenyl)vinyl)phenyl)acrylic acid] | ++ (++ = a single % value ≧ 40%) |
| ≥ 40% | ≤ 100 nM | ≤ 100 nM | O=C(O)/C=C/c1ccc(/C(=C(\c2ncc(C(F)(F)F)cc2Cl)C2CCC2)c2ccc(-c3cn[nH]c3)cc2)cc1 [Example 58, (E)-3-(4-((E)-1-(4-(1H-Pyrazol-4-yl)phenyl)-2-(3-chloro-5-(trifluoromethyl)pyridin-2-yl)-2-cyclobutylvinyl)phenyl)acrylic acid] | ++ (++ = a single % value ≧ 40%) |
| ≥ 40% | ≤ 100 nM | ≤ 100 nM | COc1ccc(/C(=C(\c2ccc(/C=C/C(=O)O)cc2)c2ccc(-c3cn[nH]c3)cc2)C2CCC2)c(Cl)c1 [Example 51, (E)-3-(4-((E)-1-(4-(1H-Pyrazol-4-yl)phenyl)-2-(2-chloro-4-methoxyphenyl)-2-cyclobutylvinyl)phenyl)acrylic acid] | ++ (++ = a single % value ≧ 40%) |
| ≥ 40% | ≤ 100 nM | ≤ 100 nM | O=C(O)/C=C/c1ccc(/C(=C(\c2ccccc2)C2CCC2)c2ccc(-c3ccon3)cc2)cc1 [Example 27, (E)-3-(4-((E)-2-Cyclobutyl-1-(4-(isoxazol-3-yl)phenyl)-2-phenylvinyl)phenyl)acrylic acid] | ++ (++ = a single % value ≧ 40%) |
| ≥ 40% | ≤ 100 nM | ≤ 100 nM | CC/C(=C(/c1ccc(/C=C/C(=O)O)cc1)c1ccc(-c2cn[nH]c2)cc1)c1ccccc1 [Example 22, (E)-3-(4-((E)-1-(4-(1H-Pyrazol-4-yl)phenyl)-2-phenylbut-1-en-1-yl)phenyl)acrylic acid] | ++ (++ = a single % value ≧ 40%) |
| ≥ 40% | ≤ 100 nM | ≤ 100 nM | Cc1cscc1/C(=C(\c1ccc(/C=C/C(=O)O)cc1)c1ccc(-c2cncs2)cc1)C1CCC1 [Example 35, (E)-3-(4-((E)-2-Cyclobutyl-2-(4-methylthiophen-3-yl)-1-(4-(thiazol-5-yl)phenyl)vinyl)phenyl)acrylic acid] | ++ (++ = a single % value ≧ 40%) |
